Experimental data published in patent US9290764B2, “RNAi for the control of insects and arachnids” (Devgen NV, priority 2005, dated 2016).

System: German cockroach, Blattella germanica
Assay: Cockroach laboratory trial of Bg001 dsRNA and Bg001 concatemer 2 (mortality and moulting to adult)
Assay type: in vivo
Settings: for number of cockroaches successfully moulting to the adult stage, as a percentage of live insects (means±standard errors, n=4): pellets 1% w/w
Experimental: Table 3: Effect of dsRNA treatments on the number of cockroaches successfully moulting to the adult stage, as a percentage of live insects (means±standard errors, n=4)
FIG. 2: Mortality of B. germanica on artificial pellet diet. The concentration of dsRNA (Bg001, having the sequence as represented as SEQ ID NO 9, and Bg001 concatemer 2, having the sequence as represented as SEQ ID NO 68) in the pellets was 1% w/w. In this experiment, hexaflumuron (1% w/w) was tested as a positive control and solvent as a negative control.
Stock solutions of 1-10 μg/μl dsRNA in distilled water were prepared. Each dsRNA solution was diluted to the appropriate concentration and mixed with finely ground laboratory diet (Rat and mouse standard diet, B&K Universal Ltd, Hull, UK), which was previously heat treated in order to inactivate any enzymes. The mixture or formulation was formed into small pellets of equal weight (0.3 g) to achieve an end concentration of 0.1% to 2% w/w dsRNA and dried overnight at room temperature.
Newly hatched nymphs from the German cockroach, B. germanica were housed per 10 in plastic lidded containers (29±2° C., minimum 40% relative humidity, with a 12:12 light:dark photoperiod). Animals were starved 24 hours prior to exposure to the pellets. The cockroaches were assessed as live, moribund or dead twice a week until adulthood. The pellet was replaced with freshly prepared pellet once a week. dsRNA containing pellets, formulations, were compared with a negative control (solvent) and a positive control (1 or 2% imidacloprid, commonly used in commercially available cockroach baits).
Concatemers were designed for each target gene. Concatemers are synthetic tandem repeats of 50 to 100 bp dsfragments. In the present example, concatemers were designed by selecting the best possible fragments in regions with homology in protein family as well as at nucleotide level, in regions containing the best predicted siRNAs and in regions with between 40 and 60% GC content, preferably about 50% GC content, if possible.
For Bg001 two concatemers were designed consisting of a five times repeat of a 50 bp fragment, ie represented by SEQ ID NO 65 and 66, resulting in Bg001 concatemer 1 and Bg001 concatemer 2, herein represented respectively as SEQ ID NO 67 and SEQ ID NO 68, and one concatemer was designed consisting of a three times repeat of a 100 bp repeat, ie represented by SEQ ID NO 69, resulting in Bg001 concatemer 3, herein represented as SEQ ID NO 70. XbaI and SmaI flanking sites were added for cloning in a vector to produce dsRNA. These dsRNA constructs comprising the concatemers were tested in the cockroach laboratory trials.
For example at day 48, from the surviving cockroaches treated with Bg001 only 33.3 moulted to the adult stage whereas none of the cockroaches treated with Bg001 concatemer 2 did within this time as shown in Table 3.

Molecule	number of cockroaches successfully moulting to the adult stage, as a percentage of live insects (means±standard errors, n=4) (Day 38)	number of cockroaches successfully moulting to the adult stage, as a percentage of live insects (means±standard errors, n=4) (Day 41)	number of cockroaches successfully moulting to the adult stage, as a percentage of live insects (means±standard errors, n=4) (Day 45)	number of cockroaches successfully moulting to the adult stage, as a percentage of live insects (means±standard errors, n=4) (Day 48)	number of cockroaches successfully moulting to the adult stage, as a percentage of live insects (means±standard errors, n=4) (Day 52)	mortality compared to the negative control (solvent) (artificial pellet diet, dsRNA 1% w/w (FIG. 2))
O=C(NC(=O)c1c(F)cccc1F)Nc1cc(Cl)c(OC(F)(F)C(F)F)c(Cl)c1 [Positive control, hexaflumuron]	0.0 (±0.0) %	0.0 (±0.0) %	0.0 (±0.0) %	0.0 (±0.0) %	0.0 (±0.0) %	–
Bg001 concatemer 2: dsRNA concatemer, five times repeat of a 50 bp Bg001 fragment (SEQ ID NO 66) (nucleic acid, Concatemer) DNA: CTTGGGTCGTGTTGGAACTGTAGTTAATCGAGAACGTCATCCTGGTTCCTCTTGGGTCGTGTTGGAACTGTAGTTAATCGAGAACGTCATCCTGGTTCCTCTTGGGTCGTGTTGGAACTGTAGTTAATCGAGAACGTCATCCTGGTTCCTCTTGGGTCGTGTTGGAACTGTAGTTAATCGAGAACGTCATCCTGGTTCCTCTTGGGTCGTGTTGGAACTGTAGTTAATCGAGAACGTCATCCTGGTTCCT	0.0 (±0.0) %	0.0 (±0.0) %	0.0 (±0.0) %	–	0.0 (±0.0) %	significant higher
